From PubChem BioAssay AID248 (DTP/NCI, 2004)
Where “and” joins values, the source holds several entries; their conditions need not be identical. Identical values can stand only once. Inconclusive results and toxic doses are left out. Cut-off read from the data, not from the text of the source: active = T/C of 150% or more; inactive = T/C below 125%.

Test system: L1210 leukemia ip in BDF1 mice, survival T/C
Assay: NCI In Vivo Anticancer Drug Screen. Data for tumor model L1210 Leukemia (intraperitoneal) in B6D2F1 (BDF1) mice
Conditions: endpoint: mean survival time, higher = longer survival
In short: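 Transplantable tumor model; survival measured in treated vs vehicle control mice. Value = treated/control.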

[1] = dose: 100.0 mg/kg/injection, schedule: Q04DX003 (ip), vehicle: Klucel (hydroxypropylcellulose) (HPC)
[2] = dose: 200.0 mg/kg/injection, schedule: Q04DX003 (ip), vehicle: Klucel (hydroxypropylcellulose) (HPC)
[3] = dose: 400.0 mg/kg/injection, schedule: Q04DX003 (ip), vehicle: Klucel (hydroxypropylcellulose) (HPC)
[4] = dose: 100.0 mg/kg/injection, schedule: Q01DX001 (ip), vehicle: saline with Tween-80
[5] = dose: 200.0 mg/kg/injection, schedule: Q01DX001 (ip), vehicle: saline with Tween-80
[6] = dose: 100.0 mg/kg/injection, schedule: Q01DX009 (ip), vehicle: Klucel (hydroxypropylcellulose) (HPC)
[7] = dose: 200.0 mg/kg/injection, schedule: Q01DX009 (ip), vehicle: Klucel (hydroxypropylcellulose) (HPC)
[8] = dose: 100.0 mg/kg/injection, schedule: Q01DX001 (ip), vehicle: Klucel (hydroxypropylcellulose) (HPC)
[9] = dose: 200.0 mg/kg/injection, schedule: Q01DX001 (ip), vehicle: Klucel (hydroxypropylcellulose) (HPC)
[10] = dose: 400.0 mg/kg/injection, schedule: Q01DX001 (ip), vehicle: Klucel (hydroxypropylcellulose) (HPC)

Measured: T/C

C=C(Cl)C(=O)OCC
inactive: dose: 5.0 mg/kg/injection, schedule: Q01DX009 (ip), vehicle: saline 103 % of control | dose: 5.0 mg/kg/injection, schedule: Q04DX003 (ip), vehicle: saline with Tween-80 93 % of control | dose: 10.0 mg/kg/injection, schedule: Q01DX009 (ip), vehicle: saline 98 % of control | dose: 10.0 mg/kg/injection, schedule: Q04DX003 (ip), vehicle: saline with Tween-80 95 % of control | dose: 20.0 mg/kg/injection, schedule: Q01DX009 (ip), vehicle: saline 104 % of control | dose: 20.0 mg/kg/injection, schedule: Q04DX003 (ip), vehicle: saline with Tween-80 95 % of control

Cc1ccc(NCS(=O)(=O)O)cc1
inactive: dose: 25.0 mg/kg/injection, schedule: Q04DX003 (ip), vehicle: Klucel (hydroxypropylcellulose) (HPC) 106 % of control | dose: 50.0 mg/kg/injection, schedule: Q04DX003 (ip), vehicle: Klucel (hydroxypropylcellulose) (HPC) 103 % of control | [1] 95 % of control and 96 % of control | [2] 100 % of control | [3] 97 % of control

O=C(OC1COC(O)C(OC(=O)c2ccccc2)C1OC(=O)c1ccccc1)c1ccccc1 (configuration not stated)
inactive: [4] 101 % of control | [5] 93 % of control

O=C1CC2(CCCCC2)CO1
inactive: dose: 0.78 mg/kg/injection, schedule: Q04DX003 (ip), vehicle: saline 100 % of control | dose: 1.56 mg/kg/injection, schedule: Q04DX003 (ip), vehicle: saline 100 % of control | dose: 3.12 mg/kg/injection, schedule: Q04DX003 (ip), vehicle: saline 103 % of control | dose: 6.25 mg/kg/injection, schedule: Q04DX003 (ip), vehicle: saline 103 % of control | dose: 12.5 mg/kg/injection, schedule: Q04DX003 (ip), vehicle: saline 92 % of control

O=C1c2cccc3cccc(c23)C(=O)N1CCc1ccccn1
inactive: [6] 91 % of control | [7] 92 % of control

NCCCNc1ccc([N+](=O)[O-])cc1
inactive: dose: 37.5 mg/kg/injection, schedule: Q04DX003 (ip), vehicle: saline 101 % of control | dose: 75.0 mg/kg/injection, schedule: Q04DX003 (ip), vehicle: saline 102 % of control | dose: 150.0 mg/kg/injection, schedule: Q04DX003 (ip), vehicle: saline 101 % of control

O=C(O)Cc1ccc(C2CCCCC2)cc1
inactive: dose: 37.5 mg/kg/injection, schedule: Q01DX Z (ip), vehicle: carboxymethylcellulose (CMC) 98 % of control | dose: 75.0 mg/kg/injection, schedule: Q01DX Z (ip), vehicle: carboxymethylcellulose (CMC) 95 % of control | dose: 150.0 mg/kg/injection, schedule: Q01DX Z (ip), vehicle: carboxymethylcellulose (CMC) 102 % of control | dose: 300.0 mg/kg/injection, schedule: Q01DX Z (ip), vehicle: carboxymethylcellulose (CMC) 102 % of control

CC(=O)Oc1ccc(OC(C)=O)c2c1C(=O)c1ccccc1C2=O
inactive: dose: 50.0 mg/kg/injection, schedule: Q01DX001 (ip), vehicle: carboxymethylcellulose (CMC) 104 % of control | dose: 100.0 mg/kg/injection, schedule: Q01DX001 (ip), vehicle: carboxymethylcellulose (CMC) 110 % of control | dose: 200.0 mg/kg/injection, schedule: Q01DX001 (ip), vehicle: carboxymethylcellulose (CMC) 102 % of control | dose: 400.0 mg/kg/injection, schedule: Q01DX001 (ip), vehicle: carboxymethylcellulose (CMC) 110 % of control

COc1ccc2nc3cc(Cl)ccc3c(NCCCCCN3CCCCC3)c2c1
inactive: dose: 5.0 mg/kg/injection, schedule: Q01DX001 (ip), vehicle: saline 97 % of control | dose: 10.0 mg/kg/injection, schedule: Q01DX001 (ip), vehicle: saline 97 % of control | dose: 20.0 mg/kg/injection, schedule: Q01DX001 (ip), vehicle: saline 101 % of control | dose: 40.0 mg/kg/injection, schedule: Q01DX001 (ip), vehicle: saline 106 % of control | dose: 80.0 mg/kg/injection, schedule: Q01DX001 (ip), vehicle: saline 100 % of control | dose: 200.0 mg/kg/injection, schedule: Q01DX001 (ip), vehicle: saline 94 % of control

CCN(CC)CCCNC(c1ccc(OC)c(OC)c1)C(Cl)(Cl)Cl (configuration not stated)
inactive: dose: 75.0 mg/kg/injection, schedule: Q01DX001 (ip), vehicle: saline 98 % of control | dose: 150.0 mg/kg/injection, schedule: Q01DX001 (ip), vehicle: saline 91 % of control

CSc1nc(N)nc(N)n1
inactive: dose: 25.0 mg/kg/injection, schedule: Q01DX009 (ip), vehicle: Klucel (hydroxypropylcellulose) (HPC) 97 % of control | dose: 50.0 mg/kg/injection, schedule: Q01DX009 (ip), vehicle: Klucel (hydroxypropylcellulose) (HPC) 100 % of control | [6] 93 % of control and 90 % of control | [7] 98 % of control

CCC1(c2ccccc2)C(=O)N(COCc2ccccc2)C(=O)N(COCc2ccccc2)C1=O
inactive: dose: 100.0 mg/kg/injection, schedule: Q01DX009 (ip), vehicle: saline with Tween-80 98 % of control | dose: 100.0 mg/kg/injection, schedule: Q04DX002 (ip), vehicle: saline with Tween-80 98 % of control | dose: 200.0 mg/kg/injection, schedule: Q01DX009 (ip), vehicle: saline with Tween-80 102 % of control | dose: 200.0 mg/kg/injection, schedule: Q04DX002 (ip), vehicle: saline with Tween-80 95 % of control | dose: 400.0 mg/kg/injection, schedule: Q01DX009 (ip), vehicle: saline with Tween-80 95 % of control | dose: 400.0 mg/kg/injection, schedule: Q04DX002 (ip), vehicle: saline with Tween-80 98 % of control

COc1ccc2c(c1)c1c(C)c3cnccc3c(C)c1n2CCOC(C)=O
inactive: dose: 12.5 mg/kg/injection, schedule: Q01DX009 (ip), vehicle: saline 107 % of control | dose: 25.0 mg/kg/injection, schedule: Q01DX009 (ip), vehicle: saline 100 % of control | dose: 50.0 mg/kg/injection, schedule: Q01DX009 (ip), vehicle: saline 112 % of control | [4] 88 % of control | [5] 100 % of control | dose: 400.0 mg/kg/injection, schedule: Q01DX001 (ip), vehicle: saline with Tween-80 120 % of control

Cc1ccc(NC(=S)Nc2cccc(C(F)(F)F)c2)cc1C
inactive: dose: 87.5 mg/kg/injection, schedule: Q01DX009 (ip), vehicle: Klucel (hydroxypropylcellulose) (HPC) 101 % of control | dose: 175.0 mg/kg/injection, schedule: Q01DX009 (ip), vehicle: Klucel (hydroxypropylcellulose) (HPC) 98 % of control | dose: 350.0 mg/kg/injection, schedule: Q01DX009 (ip), vehicle: Klucel (hydroxypropylcellulose) (HPC) 102 % of control

CC(C)(C)OC(=O)NC(CC(=O)OCc1ccccc1)C(=O)O (configuration not stated)
inactive: [6] 87 % of control | [1] 93 % of control | [2] 95 % of control | [3] 106 % of control

Cc1cccc(C)c1NC(=O)Oc1ccc2ccccc2c1
inactive: [6] 91 % of control | [1] 104 % of control | [7] 94 % of control | [2] 104 % of control | dose: 400.0 mg/kg/injection, schedule: Q01DX009 (ip), vehicle: Klucel (hydroxypropylcellulose) (HPC) 101 % of control | [3] 105 % of control

NC(=S)NNC(=O)CN1C(=O)c2ccccc2C1=O
inactive: [8] 102 % of control | [9] 105 % of control | [10] 102 % of control

CCC(C(=O)c1ccccc1)C(O)(C(F)(F)F)C(F)(F)F (configuration not stated)
inactive: [8] 96 % of control | [1] 94 % of control | [9] 106 % of control | [2] 104 % of control | [10] 95 % of control | [3] 104 % of control
